Test results: paper PMC9321663, “The DevTox Germ Layer Reporter Platform: An Assay Adaptation of the Human Pluripotent Stem Cell Test” (Toxics, 2022)
Where two headings read alike, the source gives them in different places.

Columns and labels:
[1] = tested on: SOX17 (endoderm marker) in RUES2-GLR cells; experiment: DevTox GLR-Endo assay: decrease in percent SOX17-positive cells (AEID 3094, Sox17_dn); settings: for Emax / AC50: Homo sapiens; for AC50: read-out: ga (winning model), tcpl plot AEID3094, gain parameter of winning curve fit (log concentration, µM axis), hit calls only (converted); for DevTox-GLR Endo ACC: activity concentration at cutoff, SOX17-positive cells
Method: (§1) The total test chemical incubation period was 48 h.
(§2) Assay plate controls included non-differentiated pluripotent cells maintained in complete Essential 8 Flex medium (baseline control), endoderm differentiated cells (differentiation control), endoderm differentiated cells treated with DMSO (0.2%) (solvent control), and TGF-ß receptor inhibitor SB431542 (1 µM)-treated cells (developmental toxicant-positive control) (Figure S3). All experiments were completed with a minimum of four biological replicates (n = 4).
(§3) (Supplementary Materials).

RUES2-GLR cells = experiment: DevTox GLR-Endo assay: decrease in total cell count, cytotoxicity (AEID 3098, CellCount_dn); settings: for Emax: Homo sapiens, read-out: Cell Count % Max Inhibition
Method: as §1, §2, §3

[2] = tested on: SOX17 (endoderm marker) in RUES2-GLR cells; experiment: DevTox GLR-Endo assay: increase in percent SOX17-positive cells (AEID 3093, Sox17_up); type: cell-based, human; settings: for Emax: Homo sapiens
Method: as §1, §3

[3] = tested on: BRA (mesoderm marker) in RUES2-GLR cells; experiment: DevTox GLR-Endo assay: increase in percent BRA-positive cells (AEID 3096, Bra_up); type: cell-based, human; set-up: tp (winning model): unit not given here
Method: as §1, §3

[4] = tested on: SOX2 (ectoderm and pluripotency marker) in RUES2-GLR cells; experiment: DevTox GLR-Endo assay: increase in percent SOX2-positive cells (AEID 3095, Sox2_up); settings: for AC50 / Emax: Homo sapiens; for AC50: read-out: ga (winning model); for Emax: read-out: tp (winning model);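 on all read-outs here: cells exposed to test chemicals for 48 h in total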
[5] = cited from earlier work
[6] = read-out: DevTox % Max Inhibition
[7] = Table S2, SOX17-positive cells, cutoff 3*bmad
[8] = tcpl plot AEID3093, maximum mean response, read-out: MAX_MEAN
[9] = tcpl plot AEID3093, maximum median response, read-out: MAX_MED
[10] = tcpl plot AEID3095, maximum mean response
[11] = tcpl plot AEID3095, maximum median response
[12] = Table S2, percent SOX17-positive cells, 48 h exposure
[13] = tcpl plot AEID3096, maximum mean response
[14] = tcpl plot AEID3096, maximum median response

Cell Count ACC (RUES2-GLR cells; human, 48 h)	Molecule	Emax [1, 6]	Emax ([1]; read-out: MAX_MEAN)	Emax ([1]; read-out: MAX_MED)	Emax ([1]; read-out: tp (winning model))	Hit Call [1, 7]	HIT−CALL ([1]; tcpl plot AEID3094, COFF 20.3)	Emax (RUES2-GLR cells)	Emax [2, 8]	Emax [2, 9]	HIT−CALL ([2]; tcpl plot AEID3093, COFF 20.3)	MAX_MEAN [4, 10]	MAX_MED [4, 11]	DevTox ACC [1, 12]	HIT−CALL ([3]; tcpl plot AEID3096, COFF 0.774)	MAX_MEAN [3, 13]	MAX_MED [3, 14]	further results
–	OCCO [Ethylene Glycol]	–	–	–	–	–	–	–	–	–	–	–	–	–	–	–	–	DevTox % Max Inhibition [1]: 6.931%; DevTox ACC [1]: >200 µM; HIT−CALL [1]: 0; Hit Call [1]: Negative; MAX_MEAN [1]: 6.33; MAX_MED [1]: 6.93; hit call designation (in words) [1]: false negative; maximum observed effect level class (% max inhibition) [1]: weak (key: high (80–100% max inhibition); moderate (20–80% max inhibition); weak (0–20% max inhibition)); Cell Count % Max Inhibition (RUES2-GLR cells): 7.044%; Cell Count ACC (RUES2-GLR cells): >200 µM; HIT−CALL [2]: 0; MAX_MEAN [2]: 15.9; MAX_MED [2]: 16.8; HIT−CALL [3]: 0; MAX_MEAN [3]: 0.895; MAX_MED [3]: 0.908; HIT−CALL [4]: 0; MAX_MEAN [4]: 1.02; MAX_MED [4]: 0.539
9.465 µM	Cc1ccc(NC(=O)c2ccc(CN3CCN(C)CC3)cc2)cc1Nc1nccc(-c2cccnc2)n1 [Imatinib]	101%	101%	101%	101%	Positive	1	97.8%	7.83%	8.88%	0	6.74 Percent Activity	6.89 Percent Activity	–	–	–	–	AC50 [4]: 14.1 µM; Emax [4]: 6.56%
12.6287 µM	CC1=C(/C=C/C(C)=C/C=C/C(C)=C/CO)C(C)(C)CCC1 [Retinol]	94.5%	94.3%	94.5%	117%	Positive	1	97.3%	1.1%	1.06%	0	23.5 Percent Activity	25.3 Percent Activity	13.0451 µM	–	–	–	hit call designation (in words) ([1]; DevTox GLR-Endo prediction against developmental toxicant classification): false positive; AC50 [1]: 33.9 µM; Emax ([1]; read-out: maximum observed effect level class (% max inhibition)): 80 to 100%; DevTox-GLR Endo ACC ([1]; 48 h exposure): 13.05 µM; DevTox-GLR Endo CC (RUES2-GLR cells; human, 48 h): 12.63 µM; Development Toxicant Classification ([5]; Table S2): Negative; Classification ([5]; developmental toxicant classification (Teratogen / Non-Teratogen) of reference and training chemicals, ref DOI per chemical: 10.1093/toxsci/kft239, 10.1093/toxsci/kfaa014, 10.1177/026119290203000204, 10.1038/s41598-020-59542-x): Non-Teratogen; DT Class. ([5]; developmental toxicant classification, chemicals common with quickPredict): Neg; AC50 [4]: 46.8 µM; Emax [4]: 26%
–	NC(=O)c1ccc(-c2nc(-c3ccc4c(c3)OCO4)c(-c3ccccn3)[nH]2)cc1 [SB431542]	–	–	–	–	–	–	–	–	–	–	–	–	–	–	–	–	effect on SOX2 and SOX17 expression (in words) ([1]; 1 µM positive control, 48 h endoderm induction): loss of both SOX2 and SOX17
>200 µM	O=C(O)c1cc(/N=N/c2ccc(S(=O)(=O)Nc3ccccn3)cc2)ccc1O [Sulfasalazine]	11.8%	9.93%	11.8%	–	Negative	0	8.86%	8.6%	8.79%	0	1.38 Percent Activity	0.57 Percent Activity	>200 µM	0	0.92 Percent Activity	0.948 Percent Activity	–
–	CC(=O)CC(c1ccccc1)c1c(O)c2ccccc2oc1=O (centres unmarked) [Warfarin]	26.9%	26.8%	26.9%	26.8%	Positive	1	19.1%	11.3%	11.6%	0	0.566 Percent Activity	0.495 Percent Activity	93.3273 µM	1	0.949 Percent Activity	0.975 Percent Activity	AC50 [1]: 81.3 µM; DevTox-GLR Endo ACC ([1]; 48 h exposure): 93.33 µM; Cell Count ACC (RUES2-GLR cells; Table S2, 48 h exposure): 197.749 µM; DevTox-GLR Endo CC (RUES2-GLR cells; concentration at cell count cutoff, 48 h exposure): 197.75 µM
–	D-Camphor	–	–	–	–	Negative	0	–	–	–	0	0.902 Percent Activity	0.451 Percent Activity	>200 µM	1	0.906 Percent Activity	0.891 Percent Activity	DevTox % Max Inhibition ([1]; Table S2, percent SOX17-positive cells relative to DMSO): 9.33%; MAX_MEAN ([1]; tcpl plot AEID3094, maximum mean response): 8.81 Percent Activity; MAX_MED ([1]; tcpl plot AEID3094, maximum median response): 9.33 Percent Activity; Cell Count % Max Inhibition (RUES2-GLR cells; Table S2, cell count relative to DMSO): 7.562%; MAX_MEAN ([2]; tcpl plot AEID3093, maximum mean response): 7.36 Percent Activity; MAX_MED ([2]; tcpl plot AEID3093, maximum median response): 11.6 Percent Activity; ga (winning model) ([3]; tcpl plot AEID3096, gain parameter of winning curve fit (log concentration, µM axis), hit calls only): −7; tp (winning model) ([3]; tcpl plot AEID3096, top of winning curve fit, hit calls only): 0.81; HIT−CALL [4]: 0
